Data from EP0751947B1, “GLUCOSIDIC DERIVATIVES OF N-ACYL ALKYLAMINES EXERTING NEUROPROTECTIVE, NEUROTROPHIC AND ANTI-INFLAMMATORY ACTION, USEFUL IN ACUTE AND CHRONIC DISORDERS OF THE CENTRAL NERVOUS SYSTEM CONNECTED WITH EXCITOTOXICITY” (LIFEGROUP S.p.A., priority 1994, dated 1995).

Key:
[1] = system: granule cells; experiment: neuroprotective effect against Excitatory Amino Acids (L-glutamic acid)-induced neuronal death in vitro, cell survival by MTT; assay type: cell-based, mouse; details: for survived cells (%): A: Glu 500 µM, 5 min, incubated 24 hrs; for cytoprotection against Glu neurotoxicity: result in words, Glu 500 µM for 5 min, Table 5; for Survived Cells: co-treatment
Protocol: The compounds being evaluated, referred to as No. 1, 2, 3, 4, 5, 9 and 10 (with reference to the molecules whose syntheses have been described by way of example), Diltiazem, MK 801 and monosialoganglioside GM1, were solubilized in Locke's solution and added to the culture mediums at the desired concentrations according to different treatment schedule indicated in the Tables, with a view to checking: • dose-effect relationship; • time-effect relationship vs. incubation time (start and duration) and exposure to neurotoxin.
Granule cell cultures were prepared from post natal day 8-9 mouse Balb-6 cerebellum. The cells were suspended in EBM + 2mM L-glutamine, 100 U/ml penicillin, 50 µg/l gentamicin, 25 mM KCl and 10% fetal calf serum, plated on polylysine substrate, cultured for 8-10 days, and exposed to: i) L-glutamic acid (100 µM) at room temperature for 30-40 min. ii) L-glutamic acid (500 µM) at room temperature for 5 min.
The compounds being evaluated were incubated at different times (2 hrs before and at the same time as exposure) or for different times ranging from 5 to 60 minutes after exposure to L-glutamic acid. The cultures were then brought back to the original medium and the number of survived cells was assessed by colorimetric method (MTT) 24 hours after excitotoxic stimulation.

[2] = solubility in organic solvents; details: ethanol and dmso, organic solvent or mixture
[3] = system: RBL-2H3 cells; experiment: [3H]serotonin release assay in DNP-HSA stimulated RBL-2H3 cells; assay type: cell-based, Rat; details: co-treatment with DNP-HSA, 15 min; 100 µM or 60 µM (not assigned per compound)
Protocol: The compounds under evaluation as per Ex. 1, 3, 4, and 9 were dissolved in DMSO 0.2%, while the compound of Ex. 6 was dissolved in DMSO 1%, and they were added at the desired concentration of 100 µM or 60 µM.
Rat basophil leukemia cells of the secreting subline 2H3 were grown in stationary cultures at 37°C in Eagle's minimal essential medium supplemented to contain 2mM L-glutamine, 100 IU/ml penicillin and 20% (v/v) heat-inactivated fetal calf serum (FCS). Cells were passed twice a week.
A mouse monoclonal IgE which is specific for dinitrophenol (DNP) haptens (clone SPE-7; Sigma) was used. Dinitrophenylated human serum albumin (DNP-HSA) was employed as the triggering agent in these experiments. The level of conjunction was 30-40 moles of DNP per mole of albumin (Sigma). […] The culture supernatants were then collected in Eppendorf tubes, centrifuged (4 min, 3000 rpm) and 50 µl aliquots counted by standard liquid scintillation techniques. The cellular contents of each well were solubilized with 100 µl of 1% Triton X-100 in PBS, and a 50 µl aliquot counted as above. The percent of [3H]serotonin release was calculated.
Background (spontaneous) release was normally < 5 % of the total radioactivity incorporated, and was always substracted from the stimulated release value ("net" release).

[4] = solubility in water; details: for solubility: hot water
[5] = system: cerebellar granule cells; experiment: protection against apoptotic neuronal cell death induced by low potassium (KCl 5mM), MTT assay; assay type: cell-based, Mouse; details: compound 100 µM in DMSO 0.2%, MTT 24 hrs later
Protocol: The compounds as in Ex.3, 5, 8, 9 and 11 and GM1 were solubilized in DMSO 0.2% and added to the cells at the desired concentration.
Mouse (Balb 6, 8-9 post-natal day) cerebellar granule cells were plated in basal Eagle medium (BEM) + 10% fetal calf serum + 25 […] + 2 mM glutamine + 100 µg/ml gentamicine dishes and coated with poly/L lisine. Culture medium was replaced with serum-free medium 6-9 days after plating. […] Neuronal cell survival was measured 24 hrs later by MTT assay.

[6] = physchem
[7] = physchem; details: hot water
[8] = compound 10 µM added 0 min after Glu removal

COc1ccc([C@@H]2Sc3ccccc3N(CCN(C)C)C(=O)[C@@H]2OC(C)=O)cc1 [Diltiazem, reference compound]
survived cells (%) [1, 8]: 35% | cytoprotection against Glu neurotoxicity [1]: does not show any significant action

CCCCCCCCCCCCCCCC(=O)NCCO[C@@H]1O[C@H](CO)[C@@H](O)[C@H](O)[C@H]1O [Example 1, 2-O-(β-D-glucopyranosyl)-N-palmitoylaminoethanol]
solubility [2]: > 10000 µg/mL | % of inhibition (serotonin net release inhibition) [3]: 57% | solubility in water ([4]; at room temperature, result in words): poorly soluble | solubility [4]: > 10000 µg/mL | survived cells (%) pre. ([1]; Glu 100 µM, 40 min, room temperature, compound 100 µM added 2 hrs before and then removed, survival after 24 hrs): 44% | survived cells (%) co. ([1]; Glu 100 µM, 40 min, room temperature, compound 100 µM added at the same time, survival after 24 hrs): 57% | survived cells (%) pre.+ co. ([1]; Glu 100 µM, 40 min, room temperature, compound 100 µM, 2 hrs before and at the same time, survival after 24 hrs): 35% | Survived Cells ([1]; Glu 100 µM, room temperature, 40 min, compound 10 µM): 22% | Survived Cells ([1]; Glu 100 µM, room temperature, 40 min, compound 25 µM): 35% | Survived Cells ([1]; Glu 100 µM, room temperature, 40 min, compound 50 µM): 48% | Survived Cells ([1]; Glu 100 µM, room temperature, 40 min, compound 100 µM): 67% | Survived Cells ([1]; Glu 100 µM, room temperature, 40 min, compound 200 µM): 90%

O=C(NCCO[C@@H]1O[C@H](CO)[C@H](O)[C@H](O)[C@H]1O)c1ccccc1 [Example 6, 2-0-(β-D-galactopyranosyl)-N-benzoyl-aminoethanol]
solubility [2]: > 10000 µg/mL | % of inhibition (serotonin net release inhibition) [3]: 54% | solubility [4]: > 10000 µg/mL

CCCCCCCCCC(=O)NCCO[C@@H]1O[C@H](CO)[C@@H](O)[C@H](O)[C@H]1O [Example 8, 2-0-(β-D-glucopyranosyl)-N-decanoyl-aminoethanol]
Cell survival (%) [5]: 51% | solubility [2]: > 10000 µg/mL | solubility [4]: > 10000 µg/mL

CCCCCCCCCCCCCCCCCC(=O)NCCO[C@@H]1O[C@H](CO)[C@@H](O)[C@H](O)[C@H]1O [Example 11, 2-0-(β-D-glucopyranosyl)-N-stearoyl-aminoethanol]
Cell survival (%) [5]: 51% | solubility ([6]; dmso and hot isopropyl alcohol): > 10000 µg/mL

O=C(CCCCCCCC(=O)NCCO[C@@H]1O[C@H](CO)[C@@H](O)[C@H](O)[C@H]1O)NCCO[C@@H]1O[C@H](CO)[C@@H](O)[C@H](O)[C@H]1O [Example 12, N,N'-bis-[2-0-(β-D-glucopyranosyl)-ethyl]-nonanediamide]
solubility [7]: > 10000 µg/mL | solubility ([6]; dmso): > 10000 µg/mL

CCCCC/C=C\C/C=C\C/C=C\C/C=C\CCCC(=O)NCCO[C@@H]1O[C@H](CO)[C@@H](O)[C@H](O)[C@H]1O [Example 13, 2-0-(β-D-glucopyranosyl)-N-arachidonoyl-aminoethanol]
solubility [2]: > 10000 µg/mL | water solubility ([4]; result in words): poorly soluble

CCCCCCCCCCCC(=O)NCCO[C@H]1O[C@H](CO)[C@@H](O)[C@H](O)[C@H]1O [Example 14, 2-0-(α-D-glucopyranosyl)-N-dodecanoyl-aminoethanol]
solubility [7]: > 10000 µg/mL | solubility ([6]; ethanol and dmso): > 10000 µg/mL

C[C@]12N[C@H](Cc3ccccc31)c1ccccc12 [MK 801, reference compound]
survived cells (%) [1, 8]: 66% | survived cells (%) ([1]; compound 10 µM added 15 min after Glu removal): 32% | survived cells (%) ([1]; compound 10 µM added 30 min after Glu removal): 30% | cytoprotection against Glu neurotoxicity [1]: protective, at least partially, only after co-treatment

monosialoganglioside GM1 [reference compound]
Cell survival (%) [5]: 78% | survived cells (%) ([1]; compound 100 µM added 0 min after Glu removal): 31% | cytoprotection against Glu neurotoxicity [1]: does not show any significant action
